For assay [1], the target named is T1, JAK1 (Homo sapiens, UniProt P23458).
T1 construct: 5 μl of catalytic domain recombinant Kinase enzyme+Tyr peptide substrate (Invitrogen, Calif.); purchased Invitrogen
As to the kind of experiment: Z'-LYTE kinase assay, JAK1 tyrosine phosphorylation activity. The note with it: read-out: JAK 1 IC50. Type of assay: biochemical. Put shortly:
(§1)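 Inhibition is expressed as substrate phosphorylation relative to inhibitor-free wells, fitted with a 4-parameter logistic model for IC50. Reactions contain catalytic-domain kinase, Tyr6 peptide and ATP, run 1 h at room temperature. Development protease is added for 1 h before fluorescence readout.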

Assay [2] has as its target T2, JAK2 (Homo sapiens, UniProt O60674).
T2 construct: 5 μl of catalytic domain recombinant Kinase enzyme+Tyr peptide substrate (Invitrogen, Calif.); purchased Invitrogen
The assay is described as follows: Z'-LYTE kinase assay, JAK2 tyrosine phosphorylation activity. Type of assay: biochemical. Put shortly:
as §1

The target in assay [3] is T3, JAK3 (Homo sapiens, UniProt P52333).
T3 construct: 5 μl of catalytic domain recombinant Kinase enzyme+Tyr peptide substrate (Invitrogen, Calif.); purchased Invitrogen
The assay is described as follows: Z'-LYTE kinase assay, JAK3 tyrosine phosphorylation activity. The format is biochemical. The gist of the method:
as §1

Assay [4] concerns the target T4, TYK2 (Homo sapiens, UniProt P29597).
T4 construct: 5 μl of catalytic domain recombinant Kinase enzyme+Tyr peptide substrate (Invitrogen, Calif.); purchased Invitrogen
T4 sequence (P29597 897-1176 limits assumed): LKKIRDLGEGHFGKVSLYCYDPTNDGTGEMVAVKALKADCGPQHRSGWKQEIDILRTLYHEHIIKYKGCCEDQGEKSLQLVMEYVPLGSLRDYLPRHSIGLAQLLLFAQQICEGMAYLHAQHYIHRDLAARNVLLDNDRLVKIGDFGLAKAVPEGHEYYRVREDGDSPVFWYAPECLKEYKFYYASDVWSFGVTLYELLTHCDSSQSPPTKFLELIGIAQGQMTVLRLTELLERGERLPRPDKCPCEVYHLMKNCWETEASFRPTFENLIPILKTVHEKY
As to the kind of experiment: Z'-LYTE kinase assay, TYK2 tyrosine phosphorylation activity. The format is biochemical. Put shortly:
as §1

In assay [5] the test system is IL4-induced phospho STAT6 formation in Ramos B lymphocytes. As to the kind of experiment: Inhibition of IL4-induced phospho STAT6 formation in Ramos B lymphocytes (flow cytometry). The format is cell-based, human. The note with it: Homo sapiens; for inhibition at 0.2 µM: 200 nM compound, read-out: % Inhibition of IL-4 Induced STAT6 Phosphorylation 200 nM; for inhibition at 1 µM: 1 μM compound, read-out: % Inhibition of IL-4 Induced STAT6 Phosphorylation 1 μM. An excerpt:
Similar types of assays can be used to assess JAK inhibitory activity and to determine the degree of selectivity of the particular compound as compared to syk. One means of assaying for such inhibition is detection of the effect of the compounds of the present invention on the upregulation of downstream gene products. In the Ramos/IL4 assay, B-cells are stimulated with the cytokine Interleukin-4 (IL-4) leading to the activation of the JAK/Stat pathway through phosphorylation of the JAK family kinases, JAK1 and JAK3, which in turn phosphorylate and activate the transcription factor Stat-6. […] To study the effect of inhibitors (e.g., the 2,4-substituted pyrimindinediamine compounds described herein) on the JAK1 and JAK3, human Ramos B-cells are stimulated with human IL-4. 10′ post-stimulation, cells are subjected to intracellular flow cytometry to measure the extent of STAT-6 phosphorylation. 20 to 24 hours post-stimulation, cells are stained for upregulation of CD23 and analyzed using flow cytometry.
Inhibition of IL4-induced phospho STAT6 formation was measured by pre-incubating 0.5 million Ramos B lymphocytes (ATCC) with 5 μl compound or DMSO vehicle for 1 hour at 37° C./5% CO2. Cells were activated by addition of 1 ng/ml [f]IL4 (R & D Research Systems) for 10 min at 37° C./5% CO2 and then fixed by addition of 1.6% [f]PFA (Electron Microscopy Services). Following a PBS wash step and permaeabilization with 100% methanol, cells were incubated with ALEXA-conjugated anti-phosphoSTAT6 (Y641) antibody (BD 612600). The extent of cell associated-fluorescence was determined by flow cytomentry and data expressed as mean fluorescent intensity. The extent of inhibition of the IL4-induced signal was then calculated.
(In general: A flow cytometer gives signals particle by particle.)

pIC50: −log10 of the molar value.

T2 sequence (O60674 849-1124 limits assumed): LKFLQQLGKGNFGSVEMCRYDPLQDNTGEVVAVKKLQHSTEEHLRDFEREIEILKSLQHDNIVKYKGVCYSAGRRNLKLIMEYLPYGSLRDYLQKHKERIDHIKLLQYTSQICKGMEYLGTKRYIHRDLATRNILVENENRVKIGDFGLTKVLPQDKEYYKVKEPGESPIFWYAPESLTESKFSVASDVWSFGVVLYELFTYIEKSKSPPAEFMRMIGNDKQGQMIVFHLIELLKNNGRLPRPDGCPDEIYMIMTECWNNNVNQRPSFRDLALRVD
T3 sequence (P52333 822-1111 limits assumed): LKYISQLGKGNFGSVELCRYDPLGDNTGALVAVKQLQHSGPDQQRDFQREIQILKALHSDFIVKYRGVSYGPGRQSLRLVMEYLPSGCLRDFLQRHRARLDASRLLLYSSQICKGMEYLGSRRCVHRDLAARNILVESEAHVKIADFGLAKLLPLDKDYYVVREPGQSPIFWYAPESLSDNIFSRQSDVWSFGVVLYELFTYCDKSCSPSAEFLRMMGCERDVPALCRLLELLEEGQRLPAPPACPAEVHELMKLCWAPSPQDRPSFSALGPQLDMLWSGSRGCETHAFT
T1 sequence (P23458 875-1153 limits assumed): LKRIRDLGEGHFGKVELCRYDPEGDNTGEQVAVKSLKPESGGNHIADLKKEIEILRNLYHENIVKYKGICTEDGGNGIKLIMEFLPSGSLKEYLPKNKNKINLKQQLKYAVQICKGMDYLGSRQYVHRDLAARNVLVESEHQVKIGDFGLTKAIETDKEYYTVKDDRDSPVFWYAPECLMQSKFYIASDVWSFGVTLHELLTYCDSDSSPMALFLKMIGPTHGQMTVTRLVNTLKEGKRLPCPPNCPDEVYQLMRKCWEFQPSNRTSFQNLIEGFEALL

Usually pIC50 stands for the IC50 on a negative log10 scale, so that one unit is a factor of ten. What is called inhibition is the relative decrease from the control value, in per cent. Regarding `CC(=O)Nc1cccc(Nc2ncc(C(N)=O)c(NCc3ccccc3F)n2)c1` [Example 100, 2-(3-acetamidophenylamino)-4-(2-fluorobenzylamino)pyrimidine-5-carboxamide], the pIC50 is 7.00 to 8.00 in assay [1], 7.00 to 8.00 in assay [2], 8.00 to 9.00 in assay [3] and 8.00 to 9.00 in assay [4]. In assay [5], the inhibition at 0.2 µM was determined as 43.5%. For the same compound, the inhibition at 1 µM in assay [5] was 95.3%.

Turning to `COCC(=O)Nc1cc(Nc2ncc(C(N)=O)c(NCc3ccccc3)n2)ccc1Cl` [Example 106, 4-(benzylamino)-2-(4-chloro-3-(2-methoxyacetamido)phenylamino)pyrimidine-5-carboxamide], the pIC50 in assay [1] is 6.00 to 7.00; in assay [2], 6.00 to 7.00; in assay [3] it was 7.00 to 8.00; in assay [4], 7.00 to 8.00. Moreover, the inhibition at 0.2 µM in assay [5] came to 16.8%. Moreover, the inhibition at 1 µM in assay [5] was 27.8%.

With `CC(=O)Nc1cc(Nc2ncc(C(N)=O)c(N[C@H](C)c3ccccc3)n2)ccc1Cl` [Example 108, (R)-2-(3-acetamido-4-chlorophenylamino)-4-(1-phenylethylamino)pyrimidine-5-carboxamide], the pIC50 in assay [1] is 6.00 to 7.00; in assay [2], 7.00 to 8.00; in assay [3], 8.00 to 9.00; in assay [4] it was 7.00 to 8.00. In addition, in assay [5], the inhibition at 0.2 µM worked out at 21.3%. For the same compound, the inhibition at 1 µM in assay [5] came out at 70%.

Regarding `C[C@@H](Nc1nc(Nc2ccc(Cl)c(NC(=O)C3CC3)c2)ncc1C(N)=O)c1ccccc1` [Example 110, (R)-2-(4-chloro-3-(cyclopropanecarboxamido)phenylamino)-4-(1-phenylethylamino)pyrimidine-5-carboxamide], the pIC50 was 6.00 to 7.00 in assay [1], 6.00 to 7.00 in assay [2], 7.00 to 8.00 in assay [3] and 6.00 to 7.00 in assay [4]. In addition, in assay [5], the inhibition at 0.2 µM worked out at 48.3%. The inhibition at 1 µM in assay [5] came to 97.7%.

Consider `CNC(=O)Nc1cc(Nc2ncc(C(N)=O)c(N[C@H](C)c3ccccc3)n2)ccc1Cl` [Example 132, (R)-2-(4-chloro-3-(3-methylureido)phenylamino)-4-(1-phenylethylamino)pyrimidine-5-carboxamide], for which the pIC50 in assay [1] is 6.00 to 7.00; in assay [2] it was 6.00 to 7.00; in assay [3], 7.00 to 8.00; in assay [4], 6.00 to 7.00. The inhibition at 0.2 µM in assay [5] was determined as 7.5%. For the same compound, in assay [5], the inhibition at 1 µM was determined as 53.7%.

On to `CCCCNc1nc(Nc2cccc(NC(=O)N3CCCC3)c2)ncc1C(N)=O` [Example 135, 4-(butylamino)-2-(3-(pyrrolidine-1-carboxamido)phenylamino)pyrimidine-5-carboxamide], for which the pIC50 in assay [1] is 7.00 to 8.00; in assay [2], 7.00 to 8.00; in assay [3] it was 8.00 to 9.00; in assay [4] it was 8.00 to 9.00. The inhibition at 0.2 µM in assay [5] amounted to 42.3%. Further, in assay [5], the inhibition at 1 µM was 89.7%.

Take `C[C@@H](Nc1nc(Nc2cccc(NC(=O)N3CCC[C@@H]3C)c2)ncc1C(N)=O)c1ccccc1` [Example 137, 2-(3-((S)-2-methylpyrrolidine-1-carboxamido)phenylamino)-4-((R)-1-phenylethylamino)pyrimidine-5-carboxamide]: the pIC50 in assay [1] was 6.00 to 7.00; in assay [2] it was 7.00 to 8.00; in assay [3], 8.00 to 9.00; in assay [4], 7.00 to 8.00. For the same compound, the inhibition at 0.2 µM in assay [5] amounted to 14.7%. Further, the inhibition at 1 µM in assay [5] was 57.3%.

As for `C[C@H]1CCCN1C(=O)Nc1cccc(Nc2ncc(C(N)=O)c(NCc3ccccc3)n2)c1` [Example 139, (S)-4-(benzylamino)-2-(3-(2-methylpyrrolidine-1-carboxamido)phenylamino)pyrimidine-5-carboxamide], the pIC50 in assay [1] was 7.00 to 8.00; in assay [2] it was 7.00 to 8.00; in assay [3], 8.00 to 9.00; in assay [4], 8.00 to 9.00. In assay [5], the inhibition at 0.2 µM amounted to 25.3%. In addition, the inhibition at 1 µM in assay [5] was 74.3%.

With `COC[C@@H]1CCCN1C(=O)Nc1cccc(Nc2ncc(C(N)=O)c(NCc3ccccc3)n2)c1` [Example 140, (S)-4-(benzylamino)-2-(3-(2-(methoxymethyl)pyrrolidine-1-carboxamido)phenylamino)pyrimidine-5-carboxamide], the pIC50 in assay [1] was 7.00 to 8.00; in assay [2], 7.00 to 8.00; in assay [3], 8.00 to 9.00; in assay [4], 8.00 to 9.00. Further, the inhibition at 0.2 µM in assay [5] was found to be 21.7%. For the same compound, the inhibition at 1 µM in assay [5] was 69%.

As to `NC(=O)c1cnc(Nc2cccc(NC(=O)N3CC=CC3)c2)nc1NCc1ccccc1` [Example 142, 4-(benzylamino)-2-(3-(2,5-dihydro-1H-pyrrole-1-carboxamido)phenylamino)pyrimidine-5-carboxamide], the negative logarithm of the IC50 (pIC50) was 7.00 to 8.00 in assay [1], 7.00 to 8.00 in assay [2], 8.00 to 9.00 in assay [3] and 8.00 to 9.00 in assay [4]. The inhibition at 0.2 µM in assay [5] came out at 41.3%. Further, in assay [5], the inhibition at 1 µM came to 79.3%.

Turning to `NC(=O)c1cnc(Nc2cccc(NC(=O)N3CC[C@H](O)C3)c2)nc1NCc1ccccc1` [Example 143, (S)-4-(benzylamino)-2-(3-(3-hydroxypyrrolidine-1-carboxamido)phenylamino)pyrimidine-5-carboxamide], the pIC50 in assay [1] is 7.00 to 8.00; in assay [2] it was 7.00 to 8.00; in assay [3], 8.00 to 9.00; in assay [4], 8.00 to 9.00. The inhibition at 0.2 µM in assay [5] stood at 44.7%. Also, the inhibition at 1 µM in assay [5] was found to be 85.7%.

Regarding `C[C@@H]1CCCN1C(=O)Nc1cccc(Nc2ncc(C(N)=O)c(NCc3ccccc3)n2)c1` [Example 146, (R)-4-(benzylamino)-2-(3-(2-methylpyrrolidine-1-carboxamido)phenylamino)pyrimidine-5-carboxamide], the pIC50 in assay [1] was 7.00 to 8.00; in assay [2], 7.00 to 8.00; in assay [3], 8.00 to 9.00; in assay [4], 8.00 to 9.00. In addition, the inhibition at 0.2 µM in assay [5] turned out to be 40.7%. In addition, in assay [5], the inhibition at 1 µM turned out to be 82%.

For `COC[C@H]1CCCN1C(=O)Nc1cccc(Nc2ncc(C(N)=O)c(NCc3ccccc3)n2)c1` [Example 147, (R)-4-(benzylamino)-2-(3-(2-(methoxymethyl)pyrrolidine-1-carboxamido)phenylamino)pyrimidine-5-carboxamide], the pIC50 in assay [1] is 7.00 to 8.00; in assay [2], 7.00 to 8.00; in assay [3], 8.00 to 9.00; in assay [4], 8.00 to 9.00. In addition, in assay [5], the inhibition at 0.2 µM amounted to 28.7%. In assay [5], the inhibition at 1 µM was found to be 82%.

Consider `COC[C@H]1CCCN1C(=O)Nc1cccc(Nc2ncc(C(N)=O)c(N[C@H](C)c3ccccc3)n2)c1` [Example 149, 2-(3-((R)-2-(methoxymethyl)pyrrolidine-1-carboxamido)phenylamino)-4-((R)-1-phenylethylamino)pyrimidine-5-carboxamide], for which the pIC50 in assay [1] is 6.00 to 7.00; in assay [2], 7.00 to 8.00; in assay [3], 8.00 to 9.00; in assay [4] it was 7.00 to 8.00. Also, the inhibition at 0.2 µM in assay [5] is 6.7%. The inhibition at 1 µM in assay [5] stood at 44%.

Take `CCNC(=O)Nc1cc(Nc2ncc(C(N)=O)c(NCc3ccccc3)n2)ccc1Cl` [Example 153]: the pIC50 in assay [1] is 6.00 to 7.00; in assay [2], 6.00 to 7.00; in assay [3], 7.00 to 8.00; in assay [4] it was 7.00 to 8.00. For the same compound, in assay [5], the inhibition at 0.2 µM is 22.3%. In addition, the inhibition at 1 µM in assay [5] worked out at 51.7%.

For `NC(=O)c1cnc(Nc2ccc(Cl)c(NC(=O)NC3CC3)c2)nc1NCc1ccccc1` [Example 154, 4-(benzylamino)-2-(4-chloro-3-(3-cyclopropylureido)phenylamino)pyrimidine-5-carboxamide], the pIC50 was under 6.00 in assay [1], under 6.00 in assay [2], 7.00 to 8.00 in assay [3] and 6.00 to 7.00 in assay [4]. For the same compound, the inhibition at 0.2 µM in assay [5] amounted to 11.7%. In assay [5], the inhibition at 1 µM was 33.7%.
